Assays:
CDK2/Cyclin A = target: T1, CDK2/Cyclin A (Homo sapiens, UniProt P24941); experiment: Enzymatic assay for CDK2 (LANCE Ultra kinase assay, FRET based); format: biochemical; settings: ATP at Km
T1 construct: purchased Invitrogen PV6290
In short: (§1)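 TR-FRET kinase assay at ATP Km with ULight-MBP peptide (68 nM) and Eu-anti-phospho-MBP antibody; CDK2/Cyclin A at […], CDK5/p25 at […]. 8-dose 4-fold compound dilutions; 60 min kinase reaction at 23° C., EDTA stop, 60 min detection, read at 615/665 nm.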

CDK5/p25 = target: T2, CDK5/p25 (Homo sapiens, UniProt Q00535); experiment: Enzymatic assay for CDK5 (LANCE Ultra kinase assay, FRET based); format: biochemical; settings: ATP at Km
T2 construct: purchased Invitrogen PR8543B
In short: as §1

MV4-11 = experiment: Cellular MV4-11 viability assay (CellTiter-Glo, 72 hours); format: cell-based; settings: Homo sapiens; MV4-11 cells
Procedure: Human […] cell line, MV4-11_(ATCC, Cat #CRL-9591), NSCLC (Non-small cell lung cancer) cell line H460 (ATCC, Cat #HTB-177), A2780 (ECACC, Cat #93112519) and OVCAR-3(ATCC, Cat #HTB-161) were obtained from ATCC. Cells were grown in RPMI-1640 media (Invitrogen, Cat #22400-089) supplemented with 10% FBS (Invitrogen, Cat #10099141) and 1% penicillin/streptomycin (Invitrogen, Cat #15070063) and cultured at 37° C., 5% CO2 in a humidified chamber. All cell lines were routinely tested for mycoplasma.
To effect of the CDK7 inhibitor to inhibit the growth of target cancer cells, viability assay were conducted a 72 hour time period. Briefly, the candidate cell line was plated in 96 well plate at the following density of cells respectively. 1×10^4 cells/well for MV4-11, 5×10^3 for H460 and OVCAR-3, and 1×10^3 for A2780. After 24 hours, the cells were treated with various concentrations of the compound (ranging from 0.0015 uM to 10 uM). DMSO solvent without compound served as a control and final DMSO concentration lest than 0.1%. After 72 hours of incubation at 37° C., 5% CO2 incubator, cells were analyzed for the viability using the CellTiter-Glo Luminescent Cell Viability Assay (Promega, Cat #G7570). All viability assays were performed in duplicate and Luminescence was read using an Envision (Perkin Elmer, USA). Data was analyzed using XLfit software.

CDK1/Cyclin B = target: T3, CDK1/Cyclin B (Homo sapiens, UniProt P06493); experiment: Enzymatic assay for CDK1 (LANCE Ultra kinase assay, FRET based); format: biochemical; settings: ATP at Km; read-out: CDK1 enzymatic activity IC50
T3 construct: purchased Invitrogen PR4768C
In short: (§2)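 TR-FRET (LANCE Ultra) kinase assays with a ULight-labelled peptide substrate and a Europium-labelled anti-phospho antibody. ATP was set at its Km for each kinase. Inhibition was measured on purified CDK/cyclin complexes: CDK7/Cyclin H/MNAT1 and CDK1/Cyclin B.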

CDK7/Cyclin H/MNAT1 = target: T4, CDK7/Cyclin H/MNAT1 (Homo sapiens, UniProt P50613); experiment: Enzymatic assay for CDK7 (LANCE Ultra kinase assay, FRET based); format: biochemical; settings: for IC50: ATP at Km
T4 construct: purchased Invitrogen PR6749B
In short: as §2

A2780 = A2780 viability assay (CellTiter-Glo, 72 hours); format: cell-based; settings: Homo sapiens; A2780 cells
In short: (§3)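 Cells in RPMI-1640 with 10% FBS were seeded (MV4-11 1×10^4, OVCAR-3 5×10^3, A2780 1×10^3 cells/well) and treated 24 h later with compound at 0.0015–10 uM, final DMSO under 0.1%. After 72 h at 37 °C, viability was read by CellTiter-Glo luminescence, in duplicate.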

OVCAR-3 = OVCAR-3 viability assay (CellTiter-Glo, 72 hours); format: cell-based; settings: Homo sapiens; OVCAR-3 cells
In short: as §3

T2 sequence (Q00535 whole entry): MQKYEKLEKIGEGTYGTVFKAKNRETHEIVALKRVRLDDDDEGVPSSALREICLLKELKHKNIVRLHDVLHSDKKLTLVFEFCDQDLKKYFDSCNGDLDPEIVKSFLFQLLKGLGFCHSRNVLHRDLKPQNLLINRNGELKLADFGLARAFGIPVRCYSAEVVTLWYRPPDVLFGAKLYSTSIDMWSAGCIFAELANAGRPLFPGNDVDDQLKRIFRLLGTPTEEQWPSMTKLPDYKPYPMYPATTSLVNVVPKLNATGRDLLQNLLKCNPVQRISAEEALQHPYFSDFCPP
T2 sequence (Q15078 99-307 partner limits assumed): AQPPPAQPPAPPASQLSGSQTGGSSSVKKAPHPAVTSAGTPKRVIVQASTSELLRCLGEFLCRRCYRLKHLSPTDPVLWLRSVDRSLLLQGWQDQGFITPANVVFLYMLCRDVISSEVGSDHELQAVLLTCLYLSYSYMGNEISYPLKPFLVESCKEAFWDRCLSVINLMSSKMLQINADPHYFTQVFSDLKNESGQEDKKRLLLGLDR
T4 sequence (P50613 whole entry): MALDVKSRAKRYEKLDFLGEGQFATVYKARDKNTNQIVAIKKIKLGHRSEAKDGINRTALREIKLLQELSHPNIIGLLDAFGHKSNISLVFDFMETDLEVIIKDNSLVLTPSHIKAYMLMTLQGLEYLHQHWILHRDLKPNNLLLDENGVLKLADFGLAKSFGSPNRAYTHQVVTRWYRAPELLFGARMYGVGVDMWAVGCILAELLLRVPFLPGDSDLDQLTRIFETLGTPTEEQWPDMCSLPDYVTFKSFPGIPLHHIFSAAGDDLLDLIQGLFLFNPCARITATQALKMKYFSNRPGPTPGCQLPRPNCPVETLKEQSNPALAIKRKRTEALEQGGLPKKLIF
T4 sequence (P51946 whole entry partner): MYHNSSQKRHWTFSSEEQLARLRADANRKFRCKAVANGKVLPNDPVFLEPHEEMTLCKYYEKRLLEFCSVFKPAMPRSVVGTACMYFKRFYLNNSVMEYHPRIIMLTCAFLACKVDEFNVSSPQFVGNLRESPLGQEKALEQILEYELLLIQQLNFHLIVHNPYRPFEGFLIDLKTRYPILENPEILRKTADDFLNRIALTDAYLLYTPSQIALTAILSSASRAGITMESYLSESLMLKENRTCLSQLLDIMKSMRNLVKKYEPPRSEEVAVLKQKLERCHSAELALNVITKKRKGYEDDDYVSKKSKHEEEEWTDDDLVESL
T4 sequence (P51948 whole entry partner): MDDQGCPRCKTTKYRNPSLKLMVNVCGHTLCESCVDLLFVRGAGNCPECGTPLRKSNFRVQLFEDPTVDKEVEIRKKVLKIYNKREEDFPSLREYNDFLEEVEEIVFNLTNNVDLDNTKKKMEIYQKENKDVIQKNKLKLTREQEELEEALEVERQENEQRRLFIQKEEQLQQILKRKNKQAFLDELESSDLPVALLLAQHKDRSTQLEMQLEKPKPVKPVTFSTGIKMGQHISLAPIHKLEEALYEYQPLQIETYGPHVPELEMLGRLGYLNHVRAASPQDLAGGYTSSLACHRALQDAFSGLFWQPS
T3 sequence (P06493 whole entry): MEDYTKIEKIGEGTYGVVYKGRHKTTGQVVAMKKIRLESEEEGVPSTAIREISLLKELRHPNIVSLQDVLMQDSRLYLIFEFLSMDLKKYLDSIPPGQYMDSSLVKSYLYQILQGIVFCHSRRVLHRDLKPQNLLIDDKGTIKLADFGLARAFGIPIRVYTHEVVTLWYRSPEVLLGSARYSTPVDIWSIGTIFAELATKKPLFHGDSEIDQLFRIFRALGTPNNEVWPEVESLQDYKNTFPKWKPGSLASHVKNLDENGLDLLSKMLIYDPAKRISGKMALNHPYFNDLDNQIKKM
T3 sequence (P14635 whole entry partner): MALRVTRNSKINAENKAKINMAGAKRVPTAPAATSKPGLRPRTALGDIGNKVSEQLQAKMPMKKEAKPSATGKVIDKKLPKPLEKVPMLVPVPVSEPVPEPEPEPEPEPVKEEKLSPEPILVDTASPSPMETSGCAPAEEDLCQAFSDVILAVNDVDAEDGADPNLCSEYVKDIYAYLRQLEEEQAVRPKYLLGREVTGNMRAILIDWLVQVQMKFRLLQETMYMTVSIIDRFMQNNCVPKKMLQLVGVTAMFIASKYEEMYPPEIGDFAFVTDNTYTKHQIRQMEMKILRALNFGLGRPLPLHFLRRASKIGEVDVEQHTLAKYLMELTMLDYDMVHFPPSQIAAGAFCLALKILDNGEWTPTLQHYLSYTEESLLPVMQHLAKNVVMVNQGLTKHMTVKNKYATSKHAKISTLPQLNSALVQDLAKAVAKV

| SMILES | IC50 (CDK2/Cyclin A) [nM] | IC50 (CDK5/p25) [nM] | IC50 (MV4-11) [nM] | IC50 (CDK1/Cyclin B) [nM] | IC50 (CDK7/Cyclin H/MNAT1) [nM] | CDK1/CDK7: Selectivity of CDK7 inhibition over CDK1 inhibition (CDK7/Cyclin H/MNAT1) | CDK2/CDK7: Selectivity of CDK7 inhibition over CDK2 inhibition (CDK7/Cyclin H/MNAT1) | CDK5/CDK7: Selectivity of CDK7 inhibition over CDK5 inhibition (CDK7/Cyclin H/MNAT1) | IC50 (A2780) [nM] | IC50 (OVCAR-3) [nM] |
| --- | --- | --- | --- | --- | --- | --- | --- | --- | --- | --- |
| CC(C)c1cnn2c(NCc3ccccc3-c3nccc4cc(NC(=O)/C=C/CN(C)C)ccc34)nc(N3CCC(CO)CC3)nc12 [Compound 29] | > 1000 | > 1000 | < 1000 | > 1000 | 100 to 1000 | B (B indicates 50 < [fold] ≤ 500) | B (B indicates 50 < [fold] ≤ 500) | B (B indicates 50 < [fold] ≤ 500) | < 1000 | < 1000 |
| CC(C)c1cnn2c(NCc3ccccc3-c3nccc4cc(NC(=O)/C=C/CN(C)C)ccc34)nc(N3CCC(O)CC3)nc12 [Compound 31] | > 1000 | > 1000 | < 1000 | > 1000 | < 100 | A (A indicates [fold] > 500) | A (A indicates [fold] > 500) | A (A indicates [fold] > 500) | < 1000 | < 1000 |
| CC(C)c1cnn2c(NCc3ccccc3-c3nccc4cc(NC(=O)/C=C/CN(C)C)ccc34)nc(N[C@H]3CC[C@H](O)C3)nc12 [Compound 32] | > 1000 | > 1000 | < 1000 | > 1000 | < 100 | A (A indicates [fold] > 500) | A (A indicates [fold] > 500) | A (A indicates [fold] > 500) | < 1000 | < 1000 |
| CC(C)c1cnn2c(NCc3ccccc3-c3nccc4cc(NC(=O)/C=C/CN(C)C)ccc34)nc(NC[C@H]3CC[C@H](O)CC3)nc12 [Compound 33] | > 1000 | > 1000 | < 1000 | > 1000 | 100 to 1000 | B (B indicates 50 < [fold] ≤ 500) | B (B indicates 50 < [fold] ≤ 500) | B (B indicates 50 < [fold] ≤ 500) | < 1000 | < 1000 |

The remaining lines, values ahead:

| IC50 (CDK2/Cyclin A) [nM] | IC50 (CDK5/p25) [nM] | IC50 (MV4-11) [nM] | IC50 (CDK1/Cyclin B) [nM] | IC50 (CDK7/Cyclin H/MNAT1) [nM] | CDK1/CDK7: Selectivity of CDK7 inhibition over CDK1 inhibition (CDK7/Cyclin H/MNAT1) | CDK2/CDK7: Selectivity of CDK7 inhibition over CDK2 inhibition (CDK7/Cyclin H/MNAT1) | CDK5/CDK7: Selectivity of CDK7 inhibition over CDK5 inhibition (CDK7/Cyclin H/MNAT1) | IC50 (A2780) [nM] | IC50 (OVCAR-3) [nM] | SMILES |
| --- | --- | --- | --- | --- | --- | --- | --- | --- | --- | --- |
| > 1000 | > 1000 | < 1000 | > 1000 | < 100 | A (A indicates [fold] > 500) | A (A indicates [fold] > 500) | A (A indicates [fold] > 500) | < 1000 | < 1000 | CC(C)c1cnn2c(NCc3ccccc3-c3nccc4cc(NC(=O)/C=C/CN(C)C)ccc34)nc(NCC3CNCCO3)nc12 (racemic) [Compound 62] |
| > 1000 | > 1000 | < 1000 | > 1000 | < 100 | B (B indicates 50 < [fold] ≤ 500) | B (B indicates 50 < [fold] ≤ 500) | B (B indicates 50 < [fold] ≤ 500) | < 1000 | < 1000 | C/C=C/C(=O)Nc1ccc2c(-c3ccccc3CNc3nc(NCC4CNCCO4)nc4c(C(C)C)cnn34)nccc2c1 (racemic) [Compound 69] |
| > 1000 | > 1000 | < 1000 | > 1000 | 100 to 1000 | B (B indicates 50 < [fold] ≤ 500) | B (B indicates 50 < [fold] ≤ 500) | B (B indicates 50 < [fold] ≤ 500) | < 1000 | < 1000 | CC(C)c1cnn2c(NCc3ccccc3-c3nccc4cc(NC(=O)/C=C/CN(C)C)ccc34)nc(NCCCO)nc12 [Compound 28] |
